This is an account of results in patent EP0591583B1, “Benzo (f) quinolinones as 5-alpha-reductase inhibitors” (ELI LILLY AND COMPANY, priority 1992, dated 1994).

Read-outs that look alike come from different tables or passages of the source.

This test has as its target T1, 5α-reductase (Homo sapiens, UniProt P18405).
T1 construct: host or cells: Hs68 human genital skin fibroblasts
T1 sequence (P18405 1-259): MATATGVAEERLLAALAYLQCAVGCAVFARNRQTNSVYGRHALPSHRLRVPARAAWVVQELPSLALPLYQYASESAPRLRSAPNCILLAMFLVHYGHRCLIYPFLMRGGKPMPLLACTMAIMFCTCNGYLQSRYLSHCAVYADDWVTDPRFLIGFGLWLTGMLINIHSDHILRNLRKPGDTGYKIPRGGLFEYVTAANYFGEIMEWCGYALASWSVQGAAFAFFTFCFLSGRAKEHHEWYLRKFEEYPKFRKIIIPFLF
The experiment in a line: 5α-Reductase activity in Hs68 human genital skin fibroblasts (conversion of labeled testosterone, TLC analysis). The settings on record: Hs68, test compound 0.316 µM, Hs68 cells, substrate testosterone 12 µM, incubated four hours. The format is cell-based. Here is the method:
Cell Culture: 5α-Reductase activity was measured using Hs68 human genital skin fibroblasts which were originally purchased from the American Type Culture Collection (Rockville, MD). The cells were grown in Dulbecco's Modified Eagle's Medium (DMEM) plus 10% stripped fetal bovine serum which was supplemented with amphotericin B ([…]) and gentamicin ([…]) (GIBCO, Grand Island, NY). The serum was stripped of endogenous steroids by incubation with dextran-coated charcoal prior to its addition to the media. The cells were maintained at 37°C in an atmosphere of 95% air, 5% CO2 and were passaged every 7-10 days by exposure to a trypsin-EDTA solution (0.025% trypsin, 0.265 mM EDTA). Prior to the assay the Hs68 cells were harvested and plated in Falcon 6-well plates (Becton Dickinson Labware, Lincoln Park, NJ) at a density of 6 x 10^4 cells per well. The cells were allowed to grow for 4-5 days or until they reached approximately 80% confluence.
Assay Method I: The substrate was prepared by dissolving unlabeled testosterone (Sigma Chemical Co., St. Louis, MO) in absolute ethanol followed by the addition of [7-^3H (N)]-testosterone (23.3 Ci/mmole, New England Nuclear, Boston, MA). The steroid solution was taken to dryness under a stream of nitrogen and then reconstituted in media.
Assay Method II: The substrate used for this method was [^14C]-testosterone (50 mCi/mmol) (New England Nuclear, Boston, MA). An aliquot of the substrate was taken to dryness under a stream of nitrogen. After the addition of 30 µl of ethanol, the testosterone was dissolved in an appropriate volume of media.
Sample Preparation: The test compounds were brought up in absolute ethanol in order to achieve the desired concentration. Subsequent dilutions of the test compounds with media were performed by the Biomek 1000 Automated Laboratory Workstation (Beckman Instruments, Palo Alto, CA). The existing media in the sample wells was aspirated and replaced with fresh media. Test compound was then added to the wells followed by the addition of 0.5 ml of substrate. The volume of the incubation mixture was maintained at 2.0 ml. The final substrate concentration was 12 µM. The concentration of the test compounds ranged from 0.001-150 µM. An additional three wells (background) containing media and substrate but no cells were also included to account for the non-enzymatic metabolism of the substrate. The plates were returned to the incubator and incubated for four hours.
At the end of the incubation the media was collected and transferred to an extraction tube containing 5 ml of toluene-ethanol (9:1), to which has been added 20-250 µg each of unlabeled carrier steroids (estriol, estradiol, estrone, 5α-androstan-3α,17β-diol, 5α-androstan-3β,17β-diol, 4-androstene-3,17-dione, 5α-androstan-3,17-dione, testosterone, and 5α-dihydrotestosterone) (Steraloids, Inc., Wilton, NH). In the case of Assay Method I the extraction tube also contained 1,000 and 10,000 dpm of [4-^14C]-dihydrotestosterone (50-60 mCi/mmol) and [4-^14C]-testosterone (50 mCi/mmol) (New England Nuclear, Boston, MA), respectively. The [^14C]-steroids were included as recovery standards to quantify procedural losses. A small amount of NaCl was also added to the extraction tubes to prevent foaming. The samples were vortexed for approximately 30 seconds and then centrifuged for 10 minutes at 500 x g. The organic phase was collected and the samples taken to dryness, redissolved in dichloromethane-methanol (9:1) and were analyzed by thin layer chromatography using one of the methods described below.
Chromatography Method I (two-dimensional): The extracted samples were appled to silica gel 60F254, 0.25 mm thick, thin layer chromatography plates (EM Science, Cincinnati, OH). The plates were developed in the first dimension with a solvent system containing dichloromethane-ethyl acetate-methanol-acetic acid (160:38:1.5:0.5, Mallinckrodt Inc., Paris, KY).

What is called inhibition is the drop in the measured response relative to a control, in per cent. Compound `CN1C(=O)CC[C@@H]2c3ccc(Cl)cc3CC[C@H]21` [Example 64, (-)-(4aR)-(10bR)-8-chloro-4-methyl-1,2,3,4,4a,5,6, lOb-octahydrobenzo[f]quinolin-3-one] had an inhibition at 0.316 µM of 91.5%. For `CN1C(=O)CC[C@H]2c3ccc(Cl)cc3CC[C@@H]21` [Example 65, (+)-(4aS)-(10bS)-8-chloro-4-(methyl)-1,2,3,4,4a,5,6,10b-octahydrobenzo[f]quinolin-3-one], where the note is “read-out: % Inhibition”, the inhibition at 0.316 µM was 95.6%.
